# Assay results taken from patent US20120302598A1, “IMIDAZOPYRIDINONES” (PFIZER LIMITED, priority 2007, published 2012).
# Several values for one entry are separate records, joined by “and”; a condition that tells them apart may be missing. Identical values can stand only once.
# Experiments:
# TLR7 = biological target: T1, TLR7 (Homo sapiens, UniProt Q9NYK1); test: PBL/HCV replicon bioassay; format: cell-based; conditions: read-out: EC50 (nM) (n = no. of experiments)
# T1 construct: PBL contain as a subpopulation plasmacytoid dendritic cells which are the natural interferon producing cells; endogenous in cells; host or cells: peripheral blood lymphocytes (PBL), containing plasmacytoid dendritic cells
# T1 sequence (Q9NYK1 27-1049): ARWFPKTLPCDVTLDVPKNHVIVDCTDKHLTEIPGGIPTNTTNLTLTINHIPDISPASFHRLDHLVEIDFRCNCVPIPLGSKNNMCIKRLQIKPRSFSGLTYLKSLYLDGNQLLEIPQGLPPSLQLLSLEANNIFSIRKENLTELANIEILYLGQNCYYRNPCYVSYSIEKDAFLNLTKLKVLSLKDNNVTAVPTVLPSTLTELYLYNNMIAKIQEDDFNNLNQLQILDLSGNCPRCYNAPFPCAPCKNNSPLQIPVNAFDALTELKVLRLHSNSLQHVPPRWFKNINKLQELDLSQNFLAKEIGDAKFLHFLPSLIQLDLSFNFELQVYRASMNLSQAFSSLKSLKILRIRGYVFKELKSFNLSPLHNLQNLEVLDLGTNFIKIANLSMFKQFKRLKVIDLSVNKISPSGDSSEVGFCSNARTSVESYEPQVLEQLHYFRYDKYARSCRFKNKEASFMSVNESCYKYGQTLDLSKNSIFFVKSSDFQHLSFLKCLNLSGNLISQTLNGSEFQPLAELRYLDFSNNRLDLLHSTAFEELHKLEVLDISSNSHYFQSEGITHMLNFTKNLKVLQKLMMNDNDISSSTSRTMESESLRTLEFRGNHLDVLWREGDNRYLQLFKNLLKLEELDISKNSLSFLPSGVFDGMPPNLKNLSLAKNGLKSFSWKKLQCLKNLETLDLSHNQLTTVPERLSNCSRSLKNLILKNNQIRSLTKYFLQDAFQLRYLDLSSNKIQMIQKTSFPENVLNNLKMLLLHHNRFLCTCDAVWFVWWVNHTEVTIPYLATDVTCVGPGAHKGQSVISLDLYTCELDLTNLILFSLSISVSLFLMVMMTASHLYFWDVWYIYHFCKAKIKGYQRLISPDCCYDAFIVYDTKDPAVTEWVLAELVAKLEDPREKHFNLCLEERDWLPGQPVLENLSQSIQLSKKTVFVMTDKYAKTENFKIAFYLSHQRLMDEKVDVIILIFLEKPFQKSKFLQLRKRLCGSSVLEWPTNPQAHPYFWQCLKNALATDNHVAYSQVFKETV
# From the text: EMCV: Encephalomyocarditis virus IRES: Internal ribosmomal entry site Huh: Huh-7 human hepatoma cell line 7 (parental cells used to generate HCV replicon cell lines) IUC: luciferase ubi: ubiquitin neo: neomycin ET: glutamic acid, threonine (cell culture adaptive mutations in the replicon used in the assay) RPMI-FCS: Roswell Park Memorial Institute (cell culture medium for PBL)—Foetal Calf Serum PBL: peripheral blood lymphocytes
# PBL contain as a subpopulation plasmacytoid dendritic cells which are the natural interferon producing cells during an infection and as such are an excellent model in which to profile interferon inducers. As an extremely sensitive antiviral bioassay, supernatant taken from PBL is assayed for antiviral activity in the HCV replicon system.
# The HCV replicon (Huh-5-2[l389 luc-ubi-neo-NS3-3′/ET]) is an in vitro model of HCV replication in which the luciferase reporter is incorporated into HCV sequences and stably maintained in the human hepatoma cell line Huh-7. The firefly luciferase reporter is expressed as a luciferase-ubiquitin-neomycin phosphotransferase fusion protein which is cleaved by host proteases to release luciferase. […] Firefly luciferase activity is detected using a Bright-Glo™ Luciferase Assay System manufactured by Promega. […]
# [1] = test system: HCV replicon containing cells; test: Direct response of HCV replicon containing cells to TLR agonists; format: cell-based, human; conditions: compound applied directly to replicon cells, not via PBL conditioned medium
Compound,EC50 (TLR7),direct response of HCV replicon containing cells to the TLR agonist [1]
"Cc1ccc(Cn2c(=O)[nH]c3c(N)nc(OCC4CCCO4)cc32)cn1 (stereo not drawn) [Example 5, 4-Amino-1-(6-methyl-pyridin-3-ylmethyl)-6-(tetrahydro-furan-2-R/S-ylmethoxy)-1,3-dihydro-imidazo[4,5-c]pyridin-2-one]",698 nM and 1240 nM and 1160 nM and 3700 nM and 475 nM and 1430 nM and 1040 nM and 583 nM and 1010 nM and 737 nM,
"Cc1ccc(Cn2c(=O)[nH]c3c(N)nc(OC[C@H]4CCCO4)cc32)cn1 [Example 6, 4-Amino-1-(6-methyl-pyridin-3-ylmethyl)-6-(tetrahydro-furan-2-R-ylmethoxy)-1,3-dihydro-imidazo[4,5-c]pyridin-2-one]",> 4000 nM and 1920 nM and 1000 nM and 1450 nM and 1940 nM and 1470 nM and 1250 nM and 1580 nM,
CC(C)Cn1cnc2c(N)nc3ccccc3c21 [Imiquimod],,do not respond directly
